Measurements taken from US20220370317A1, “COMPOSITION FOR SKIN WHITENING, COMPRISING CARVONE OR SALT THEREOF AS ACTIVE INGREDIENT” (BOTANICSENS, priority 2019, published 2022).
Where two headings read alike, the source gives them in different places.

Legend:
B6F10 melanocytes = test: Measurement of melanin production in cells (α-MSH-induced melanogenesis); format: cell-based; conditions: α-MSH (100 nM) plus carvone (100 μM), 48 hours
Protocol: B16F10 melanocytes were purchased from ATCC (Manassas, Va., USA), and the purchased cells were cultured using DMEM (Dulbecco's Modified Eagle's Media) containing 10% FBS (fetal bovine serum) in an incubator at 37° C. under 5% CO2. B6F10 melanocytes were cultured in DMEM containing 10% FBS at 37° C. under 5% CO2, and then the cells were dispensed into a 6-well plate at a density of 1×10^5 cells/well and attached thereto. […] After washing twice with PBS (phosphate buffered saline), the cells were harvested. The harvested cells were centrifuged at 1,000 rpm for 5 minutes, and then the color of the pellet was visually observed. Thereafter, the cell pellet was lysed by adding 200 μL of 1N NaOH solution containing 10% DMSO, and then the absorbance at 400 nm was measured with a microplate reader.

[1] = test system: MITF (microphthalmia transcription factor); test: RNA extraction and quantitative PCR assay, MITF expression; format: cell-based; conditions: B6F10 melanocytes, α-MSH plus carvone, vs α-MSH control cells
Protocol: (§1) B6F10 melanocytes were cultured in DMEM containing 10% FBS at 37° C. under 5% CO2, and then the cells were dispensed into a 6-well plate at a density of 1×10^5 cells/well and attached thereto. As normal cells, cells not treated with α-MSH that induces melanogenesis were used, and as control cells, cells treated with α-MSH (100 nM) were used. The cells cultured under the above conditions were treated with α-MSH (100 nM) plus carvone (100 μM) and cultured for 48 hours. […] Using the cDNA obtained through reverse transcription as a template and using the [NT] flanking sequences of the gene cDNA to be amplified as primers, quantitative PCR was performed using iQ SYBR green supermix (Bio-Rad) and CFX ConnectTM Real-Time PCR Detection System (Bio-Rad). [table]

Tyrosinase = test: RNA extraction and quantitative PCR assay, tyrosinase expression; format: cell-based; conditions: B6F10 melanocytes, α-MSH plus carvone, vs α-MSH control cells
Protocol: as §1

[2] = oral, rats; cited from earlier work
[3] = in water and ethanol; cited from earlier work
[4] = transdermal; cited from earlier work

## C=C(C)C1CC=C(C)C(=O)C1 (stereo not shown) [carvone]
B6F10 melanocytes; absorbance at 400 nm, vs α-MSH control cells
  decrease of melanin content compared to control cells: 29%
B6F10 melanocytes; compared to control cells treated with only α-MSH
  pellet color of cells, visually observed: significantly paler
[1]
  decrease of MITF expression compared to control cells: 36%
Tyrosinase
  decrease of tyrosinase expression compared to control cells: 31%
[2]
  LD50: 1,640 mg/kg
[3]
  solubility: well soluble
[4]
  LD50: ≥ 4,000 mg/kg
